Experimental data published in US6914045B2, “Glycopeptide antibiotics” (Wyeth Holdings Corporation, priority 2001, dated 2005).
≈ marks a conversion by molar mass, not a printed value.

Columns and labels:
Assay in all cases: in vitro antibacterial evaluation, MIC by broth dilution
Format in all cases: cell-based
Enterococcus sp. = conditions: broth dilution, 18 hours at 35° C.; for MIC Enterococcus faecalis (ATCC 29212): strain ATCC 29212; for MIC Enterococcus faecalis (GC 2242): strain GC 2242; for MIC Enterococcus faecium (GC 2243): strain GC 2243; for MIC Enterococcus faecalis (GC 2691): strain GC 2691; for MIC Enterococcus faecalis (GC 3059): strain GC 3059; for MIC Enterococcus faecalis (GC 4552): strain GC 4552; for MIC Enterococcus faecalis (GC 4553): strain GC 4553; for MIC Enterococcus faecalis (GC 4554): strain GC 4554; for MIC Enterococcus faecium (GC 4556): strain GC 4556; for MIC Enterococcus faecium (GC 4557): strain GC 4557; for MIC Enterococcus avium (GC 4558): strain GC 4558; for MIC Enterococcus faecalis (GC 6189): strain GC 6189
How it was run: (§1)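 Broth dilution per NCCLS standard M7-A2 in Muller-Hinton II […], with an inoculum of 5×10^5 CFU/mL and antibiotic spanning 64-0.06 μg/mL. The MIC is the lowest concentration that inhibits growth of the organism.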

Staphylococcus sp. = conditions: broth dilution, 18 hours at 35° C.; for MIC Staphylococcus aureus (GC 1131): strain GC 1131
How it was run: as §1

Escherichia coli = system: Escherichia coli
How it was run: as §1

Streptococcus sp. = conditions: broth dilution, 18 hours at 35° C.; for MIC Streptococcus pneumoniae (ATCC 6301): strain ATCC 6301; for MIC Streptococcus pneumoniae (GC 1894): strain GC 1894; for MIC Streptococcus pyogenes (GC 4563): strain GC 4563; for MIC Streptococcus agalactiae (GC 4564): strain GC 4564; for MIC Streptococcus pneumoniae (GC 4565): strain GC 4565
How it was run: as §1

CC(c1ccccc1)C1NC(=O)CNC(=O)C(CO)NC(=O)C(C(O)C2CNC(=N)N2C2OC(CO)C(O)C(O)C2O)NC(=O)C(C(O)C2CNC(=N)N2)NC(=O)C(Cc2ccc(OC3OC(CO)C(OC4OC5COC(c6cccc(Oc7ccccc7)c6)OC5C(O)C4O)C(O)C3O)cc2)NC1=O (centres unmarked) [Example 170]
MIC Enterococcus faecalis (ATCC 29212) (Enterococcus sp.; inoculum 5×10^5 CFU/mL): 4 µg/mL (≈ 2.71 µM) | MIC Enterococcus faecalis (GC 2242) (Enterococcus sp.; inoculum 5×10^5 CFU/mL): 4 µg/mL (≈ 2.71 µM) | MIC Enterococcus faecium (GC 2243) (Enterococcus sp.; inoculum 5×10^5 CFU/mL): 4 µg/mL (≈ 2.71 µM) | MIC Enterococcus faecalis (GC 2691) (Enterococcus sp.; inoculum 5×10^5 CFU/mL): 4 µg/mL (≈ 2.71 µM) | MIC Enterococcus faecalis (GC 3059) (Enterococcus sp.; inoculum 5×10^5 CFU/mL): 4 µg/mL (≈ 2.71 µM) | MIC Enterococcus faecalis (GC 4552) (Enterococcus sp.; inoculum 5×10^5 CFU/mL): 4 µg/mL (≈ 2.71 µM) | MIC Enterococcus faecalis (GC 4553) (Enterococcus sp.; inoculum 5×10^5 CFU/mL): 4 µg/mL (≈ 2.71 µM) | MIC Enterococcus faecalis (GC 4554) (Enterococcus sp.; inoculum 5×10^5 CFU/mL): 2 µg/mL (≈ 1.36 µM) | MIC Enterococcus faecium (GC 4556) (Enterococcus sp.; inoculum 5×10^5 CFU/mL): 4 µg/mL (≈ 2.71 µM) | MIC Enterococcus faecium (GC 4557) (Enterococcus sp.; inoculum 5×10^5 CFU/mL): 4 µg/mL (≈ 2.71 µM) | MIC Enterococcus avium (GC 4558) (Enterococcus sp.; inoculum 5×10^5 CFU/mL): 4 µg/mL (≈ 2.71 µM) | MIC Enterococcus faecalis (GC 6189) (Enterococcus sp.; inoculum 5×10^5 CFU/mL): 4 µg/mL (≈ 2.71 µM) | MIC Enterococcus faecalis (ATCC 29212) (Enterococcus sp.): 4 µg/mL (≈ 2.71 µM) | MIC Enterococcus faecalis (GC 2242) (Enterococcus sp.): 4 µg/mL (≈ 2.71 µM) | MIC Enterococcus faecium (GC 2243) (Enterococcus sp.): 4 µg/mL (≈ 2.71 µM) | MIC Enterococcus faecalis (GC 2691) (Enterococcus sp.): 4 µg/mL (≈ 2.71 µM) | MIC Enterococcus faecalis (GC 3059) (Enterococcus sp.): 4 µg/mL (≈ 2.71 µM) | MIC Enterococcus faecalis (GC 4552) (Enterococcus sp.): 4 µg/mL (≈ 2.71 µM) | MIC Enterococcus faecalis (GC 4553) (Enterococcus sp.): 4 µg/mL (≈ 2.71 µM) | MIC Enterococcus faecalis (GC 4554) (Enterococcus sp.): 2 µg/mL (≈ 1.36 µM) | MIC Enterococcus faecium (GC 4556) (Enterococcus sp.): 4 µg/mL (≈ 2.71 µM) | MIC Enterococcus faecium (GC 4557) (Enterococcus sp.): 4 µg/mL (≈ 2.71 µM) | MIC Enterococcus avium (GC 4558) (Enterococcus sp.): 4 µg/mL (≈ 2.71 µM) | MIC Enterococcus faecalis (GC 6189) (Enterococcus sp.): 4 µg/mL (≈ 2.71 µM) | MIC Staphylococcus aureus (GC 1131) (Staphylococcus sp.; inoculum 5×10^5 CFU/mL): 4 µg/mL (≈ 2.71 µM) | MIC Staphylococcus aureus (ATCC 29213) (Staphylococcus sp.; strain ATCC 29213): 4 µg/mL (≈ 2.71 µM) | MIC Staphylococcus aureus (GC 1131) (Staphylococcus sp.): 4 µg/mL (≈ 2.71 µM) | MIC Staphylococcus aureus (GC 3051) (Staphylococcus sp.; strain GC 3051): 4 µg/mL (≈ 2.71 µM) | MIC Staphylococcus aureus (GC 3053) (Staphylococcus sp.; strain GC 3053): 1 µg/mL (≈ 0.678 µM) | MIC Staphylococcus aureus (GC 4541) (Staphylococcus sp.; strain GC 4541): 2 µg/mL (≈ 1.36 µM) | MIC Staphylococcus aureus (GC 4542) (Staphylococcus sp.; strain GC 4542): 4 µg/mL (≈ 2.71 µM) | MIC Staphylococcus aureus-SMITH (GC 4543) (Staphylococcus sp.; strain GC 4543): 4 µg/mL (≈ 2.71 µM) | MIC Staphylococcus aureus (GC 4544) (Staphylococcus sp.; strain GC 4544): 2 µg/mL (≈ 1.36 µM) | MIC Staphylococcus aureus (GC 4545) (Staphylococcus sp.; strain GC 4545): 4 µg/mL (≈ 2.71 µM) | MIC Staphylococcus haemolyticus (GC 4546) (Staphylococcus sp.; strain GC 4546): 8 µg/mL (≈ 5.42 µM) | MIC Coagulase Negative Staphylococcus (GC 4547) (Staphylococcus sp.; strain GC 4547): 4 µg/mL (≈ 2.71 µM) | MIC Coagulase Negative Staphylococcus (GC 4548) (Staphylococcus sp.; strain GC 4548): 1 µg/mL (≈ 0.678 µM) | MIC Coagulase Negative Staphylococcus (GC 4549) (Staphylococcus sp.; strain GC 4549): 2 µg/mL (≈ 1.36 µM) | MIC Coagulase Negative Staphylococcus (GC 4551) (Staphylococcus sp.; strain GC 4551): 1 µg/mL (≈ 0.678 µM) | MIC Coagulase Negative Staphylococcus (GC 6257) (Staphylococcus sp.; strain GC 6257): 1 µg/mL (≈ 0.678 µM) | MIC Escherichia coli (ATCC 25922) (Escherichia coli; strain ATCC 25922, 18 hours at 35° C.): >64 µg/mL | MIC Escherichia coli (GC 4559) (Escherichia coli; strain GC 4559, 18 hours at 35° C.): >64 µg/mL | MIC Escherichia coli (GC 4560) (Escherichia coli; strain GC 4560, 18 hours at 35° C.): 4 µg/mL (≈ 2.71 µM) | MIC Streptococcus pneumoniae (ATCC 6301) (Streptococcus sp.; inoculum 5×10^5 CFU/mL): <0.06 µg/mL | MIC Streptococcus pneumoniae (GC 1894) (Streptococcus sp.; inoculum 5×10^5 CFU/mL): <0.06 µg/mL | MIC Streptococcus pyogenes (GC 4563) (Streptococcus sp.; inoculum 5×10^5 CFU/mL): <0.06 µg/mL | MIC Streptococcus agalactiae (GC 4564) (Streptococcus sp.; inoculum 5×10^5 CFU/mL): <0.06 µg/mL | MIC Streptococcus pneumoniae (GC 4565) (Streptococcus sp.; inoculum 5×10^5 CFU/mL): <0.06 µg/mL | MIC Streptococcus pneumoniae (ATCC 6301) (Streptococcus sp.): <0.06 µg/mL | MIC Streptococcus pneumoniae (GC 1894) (Streptococcus sp.): <0.06 µg/mL | MIC Streptococcus pyogenes (GC 4563) (Streptococcus sp.): <0.06 µg/mL | MIC Streptococcus agalactiae (GC 4564) (Streptococcus sp.): <0.06 µg/mL | MIC Streptococcus pneumoniae (GC 4565) (Streptococcus sp.): <0.06 µg/mL
